Data published in PMC10616807, “3′-O-β-Glucosyl-4′,5′-didehydro-5′-deoxyadenosine Is a Natural Product of the Nucleocidin Producers Streptomyces virens and Streptomyces calvus” (Journal of Natural Products, 2023).

Tested on: T1, NucGT
T1 construct: glucosyltransferase enzyme
Experiment: HPLC product assay at […] nm, initial rates, Michaelis-Menten fit
Format: biochemical, Streptomyces calvus
Settings: 17.7 mM UDP-glucose (saturating), 100 mM MgCl2, 50 mM Tris-HCl pH 7.8, 37 °C

| Compound | Km |
| --- | --- |
| Nc1ncnc2c1ncn2[C@@H]1O[C@H](CO)[C@@H](O)[C@H]1O [adenosine] | 487 ± 53 µM |
| C=C1O[C@@H](n2cnc3c(N)ncnc32)[C@H](O)[C@@H]1O [compound 12, 4′,5′-didehydro-5′-deoxyadenosine] | 365 ± 6 µM |
